pIC50: −log10 of the molar value. The source made the active and inactive calls. No cut-off for these calls is given here.
Legend:
T-24 [1] = assay: Antiproliferative activity against human T24 cells xenografted in nude mouse model assessed as tumor inhibition rate at 5 mg/kg, ip administered once every two days for 21 days relative to control; assay type: functional; settings: T-24, 504 h, time 21 day
HepG2 [2] = assay: Antiproliferative activity against human HepG2 cells xenografted in nude mouse model assessed as tumor inhibition rate at 15 mg/kg, ip administered once every two days for 21 days relative to control; assay type: functional; settings: HepG2, 504 h, time 21 day
HepG2 [3] = assay: Antiproliferative activity against human HepG2 cells incubated for 48 hrs by MTT assay; assay type: functional, cell-based; settings: HepG2, 48 h
SK-OV-3 [4] = assay: Antiproliferative activity against human SK-OV-3 cells xenografted in nude mouse model assessed as tumor inhibition rate at 5 mg/kg, ip administered once every two days for 21 days relative to control; assay type: functional; settings: SK-OV-3, 504 h, time 21 day
MGC-803 = assay: Antiproliferative activity against human MGC-803 cells incubated for 48 hrs by MTT assay; assay type: functional, cell-based; settings: MGC-803, 48 h
T-24 [5] = assay: Antiproliferative activity against human T24 cells incubated for 48 hrs by MTT assay; assay type: functional, cell-based; settings: T-24, 48 h
SK-OV-3 [6] = assay: Antiproliferative activity against human SK-OV-3 cells incubated for 48 hrs by MTT assay; assay type: functional, cell-based; settings: SK-OV-3, 48 h
[7] = Toxicity in nude mouse model xenografted with human HepG2 cells assessed as pathological change in lung at 5 to 15 mg/kg, ip administered once every two days for 21 days; assay type: organism-based; settings: in vivo, 504 h, dose 5-15 mg/kg, time 21 day
T-24 [8] = assay: Antiproliferative activity against human T24 cells xenografted in nude mouse model assessed as tumor inhibition rate at 15 mg/kg, ip administered once every two days for 21 days relative to control; assay type: functional; settings: T-24, 504 h, time 21 day
[9] = Toxicity in nude mouse model xenografted with human HepG2 cells assessed as pathological change in spleen at 5 to 15 mg/kg, ip administered once every two days for 21 days; assay type: organism-based; settings: in vivo, 504 h, dose 5-15 mg/kg, time 21 day
[10] = Toxicity in nude mouse model xenografted with human T24 cells assessed as pathological change in heart at 5 to 15 mg/kg, ip administered once every two days for 21 days; assay type: organism-based, T-24; settings: in vivo, 504 h, dose 5-15 mg/kg, time 21 day
A549 = assay: Antiproliferative activity against human A549 cells incubated for 48 hrs by MTT assay; assay type: functional, cell-based
A549/CDDP = assay: Antiproliferative activity against human A549/DDP cells incubated for 48 hrs by MTT assay; assay type: functional, cell-based
[11] = Toxicity in nude mouse model xenografted with human HepG2 cells assessed as pathological change in heart at 5 to 15 mg/kg, ip administered once every two days for 21 days; assay type: organism-based; settings: in vivo, 504 h, dose 5-15 mg/kg, time 21 day
[12] = Toxicity in nude mouse model xenografted with human T24 cells assessed as pathological change in spleen at 5 to 15 mg/kg, ip administered once every two days for 21 days; assay type: organism-based, T-24; settings: in vivo, 504 h, dose 5-15 mg/kg, time 21 day
[13] = Toxicity in nude mouse model xenografted with human T24 cells assessed as pathological change in lung at 5 to 15 mg/kg, ip administered once every two days for 21 days; assay type: organism-based, T-24; settings: in vivo, 504 h, dose 5-15 mg/kg, time 21 day
HepG2 [14] = assay: Antiproliferative activity against human HepG2 cells xenografted in nude mouse model assessed as tumor inhibition rate at 5 mg/kg, ip administered once every two days for 21 days relative to control; assay type: functional; settings: HepG2, 504 h, time 21 day
[15] = Toxicity in nude mouse model xenografted with human HepG2 cells assessed as pathological change in liver at 5 to 15 mg/kg, ip administered once every two days for 21 days; assay type: organism-based; settings: in vivo, 504 h, dose 5-15 mg/kg, time 21 day
[16] = Toxicity in nude mouse model xenografted with human T24 cells assessed as pathological change in liver at 5 to 15 mg/kg, ip administered once every two days for 21 days; assay type: organism-based, T-24; settings: in vivo, 504 h, dose 5-15 mg/kg, time 21 day

| SMILES | pIC50 (HepG2 [3]) | pIC50 (MGC-803) | pIC50 (T-24 [5]) | pIC50 (SK-OV-3 [6]) | further results |
| --- | --- | --- | --- | --- | --- |
| CN(C)CCN1C(=O)c2cccc3cc(N)cc(c23)C1=O [AMONAFIDE] | 5.10 | – | – | – | inhibition in vivo at 5 mg/kg (T-24 [1]): 70.6%; inhibition in vivo at 15 mg/kg (HepG2 [2]): 62%; inhibition in vivo at 5 mg/kg (SK-OV-3 [4]): 62.1% |
| CCCCN1C(=O)c2cccc3c(N4CCN(C(=O)OC(C)(C)C)CC4)ccc(c23)C1=O | < 4.30 | < 4.30 | < 4.30 | < 4.30 | – |
| O=C(c1ccccc1)N1CCN(c2ccc3c4c(cccc24)C(=O)N(CCO)C3=O)CC1 | 4.76 | 4.71 | 4.69 | 4.78 | – |
| O=C(c1ccccc1)N1CCN(c2ccc3c4c(cccc24)C(=O)N(Cc2ccc(Cl)cc2)C3=O)CC1 | 4.40 | 4.36 | 4.53 | 4.51 | – |
| CNCCCN1C(=O)c2cccc3c(N4CCN(C(=O)OC(C)(C)C)CC4)ccc(c23)C1=O | 5.01 | 4.76 | 5.07 | 4.88 | – |
| O=C1c2cccc3c(N4CCN(C(=S)SCc5ccccc5)CC4)ccc(c23)C(=O)N1Nc1nc2ccccc2s1 | 4.63 | 4.73 | 4.69 | 4.61 | – |
| O=C1c2cccc3c(N4CCN(C(=S)SCc5ccccc5)CC4)ccc(c23)C(=O)N1CCc1ccc(O)c(O)c1 | 4.51 | 4.46 | 4.51 | 4.46 | – |
| O=C(c1ccccc1)N1CCN(c2ccc3c4c(cccc24)C(=O)N(Cc2ccccc2)C3=O)CC1 | 4.57 | 4.63 | 4.75 | 4.65 | – |
| CC(C)(C)OC(=O)N1CCN(c2ccc3c4c(cccc24)C(=O)N(CCc2ccc(O)c(O)c2)C3=O)CC1 | 4.52 | 4.49 | 4.60 | 4.58 | – |
| CC(C)(C)OC(=O)N1CCN(c2ccc3c4c(cccc24)C(=O)N(Cc2ccccc2)C3=O)CC1 | < 4.30 | < 4.30 | < 4.30 | < 4.30 | – |
| CC(C)(C)OC(=O)N1CCN(c2ccc3c4c(cccc24)C(=O)N(Nc2ccccn2)C3=O)CC1 | 4.81 | 4.78 | 4.91 | 4.75 | – |
| CNCCN1C(=O)c2cccc3c(N4CCN(C(=O)OC(C)(C)C)CC4)ccc(c23)C1=O | 5.13 | 5.06 | 5.41 | 5.27 | – |
| CN(C)CCN1C(=O)c2cccc3c(N4CCN(C(=O)c5ccccc5)CC4)ccc(c23)C1=O | 5.32 | 5.24 | 5.68 | 5.70 | Activity [7]: Non-Toxic; inhibition in vivo at 5 mg/kg (T-24 [1]): 55%; inhibition in vivo at 15 mg/kg (T-24 [8]): 64.5%; Activity [9]: Non-Toxic; Activity [10]: Non-Toxic; Activity (A549): Active; inhibition in vivo at 15 mg/kg (HepG2 [2]): 54.5%; Activity (A549/CDDP): Active; Activity [11]: Non-Toxic; Activity [12]: Non-Toxic; Activity [13]: Non-Toxic; inhibition in vivo at 5 mg/kg (HepG2 [14]): 51.5%; Activity [15]: Non-Toxic; Activity [16]: Non-Toxic |
| CC(C)(C)OC(=O)N1CCN(c2ccc3c4c(cccc24)C(=O)N(CCc2ccc4c(c2)OCO4)C3=O)CC1 | 5.37 | 5.24 | 5.43 | 5.38 | – |
| O=C(c1ccccc1)N1CCN(c2ccc3c4c(cccc24)C(=O)N(CCc2ccc(O)c(O)c2)C3=O)CC1 | 4.55 | 4.59 | 4.58 | 4.67 | – |
| CC(C)(C)OC(=O)N1CCN(c2ccc3c4c(cccc24)C(=O)N(CCO)C3=O)CC1 | 5.12 | 5.06 | 5.13 | 5.04 | – |
| O=C1c2cccc3c(N4CCN(C(=S)SCc5ccccc5)CC4)ccc(c23)C(=O)N1Nc1ccccn1 | < 4.30 | < 4.30 | < 4.30 | < 4.30 | – |
